Results reported in US7601724B2, “Substituted pyrazolo[1,5-a]pyrimidines as protein kinase inhibitors” (Schering Corporation, priority 2002, dated 2009).

Molecular target: T1, Cyclin E/CDK2 (Homo sapiens, UniProt P24941)
T1 construct: made in house; host or cells: SF9 insect cells, baculovirus co-infection
Assay: In vitro cyclin E/CDK2 kinase assay (33P-ATP, SPA beads), IC50 determination
Assay type: biochemical

- IC50: 200 nM
Structure (SMILES): Cn1cc(-c2cnn3c(Nc4ccc(-n5ccnc5)cc4)cc(C4CCCNC4)nc23)cn1 (stereo not shown) [Example 90-C]
